System: serum uric acid (sUA)
Assay: Serum uric acid (sUA) levels and sUA responders, open-label study of pegloticase with MTX (NCT03635957)
Format: in vivo, human
Settings: mITT
Method: The primary objective is to estimate the response rate during Month 6 (Weeks 20, 22, and 24), as measured by the sustained normalization of serum uric acid (SUA) to <6 mg/dL for at least 80% of the time during Month 6 in subjects receiving KXX with MTX.
The primary efficacy outcome endpoint is the sustained normalization of SUA to <6 mg/dL for at least 80% of the time during month 6 (weeks 20, 22, and 24) in subjects receiving KXX with MTX. This is slightly below the urate solubility threshold and this threshold has been the accepted standard for nearly all modern gout trials. Participants who achieve this endpoint were classified as “responders.” Serum uric acid (SUA) responders may also be defined as participants achieving and maintaining SUA <6 mg/dL for at least 80% of the time during Month 6 (Weeks 20, 22, and 24).
Blood samples may be collected prior to each pegloticase infusion for measurement of SUA levels using the Beckman Coulter AU System Uric Acid procedure. Participants were declared “non-responders” if there were SUA measures >6 mg/dL at 2 consecutive study visits beginning with the week 2 visit. […] If the SUA goal is not maintained before or at the 12-week mark, it was assumed that the participant had developed clinically relevant anti-pegloticase antibody and they received no further infusions. This assumption and subsequent discontinuation of pegloticase was consistent with the protocol of large phase III randomized controlled trials and the product label. A formal stopping rule was 2 occasions of SUA levels of greater than 6 mg/dL.
Clinical Chemistry—Blood samples were collected prior to each pegloticase infusion for measurement of SUA levels (primary efficacy parameter) using the Beckman Coulter AU System Uric Acid procedure. In this procedure uric acid is converted to hydrogen peroxide. Hydrogen peroxide reacts with reagent to produce a chromophore which is read bichromatically at 660/800 nm. The amount of dye formed is proportional to the uric acid concentration in the sample.
Serum samples for measurement of SUA levels were collected at the Screening Visit, the Week −4 Visit (prior to the first dose of MTX), and the Week −2 Visit during the MTX Run-in Period; within 48 hours prior to each pegloticase infusion and after the end of each pegloticase infusion prior to discharge from the site during the Pegloticase+IMM Period; at the non-infusion Week 52/End of Study/Early Termination Visits and at the Post Treatment 3 and 6 Month Follow-up Visits. Additional serum samples for SUA levels were collected at optional non-infusion (Frequent Sampling) Visits at Weeks 1 and 7. […] Subjects with SUA level >6 mg/dL at 2 consecutive visits beginning at Week 2 visit discontinued treatment, completed the End of Pegloticase Infusion Visit procedures within 2 weeks and continued the subject visits according to the protocol (without treatment).
Efficacy analyses were performed using the modified intention-to-treat (mITT) population, defined as all enrolled subjects who received ≥1 dose of pegloticase. The proportion of Month 6 responders was summarized, along with a 95% confidence interval for the proportion. The proportion of Month 3 and overall (Months 3 and 6 combined) responders was analyzed similarly.
A subject was declared a non-responder if the subject had SUA level >6 mg/dL at 2 consecutive study visits beginning with the Week 2 Visit. In addition, a subject who withdraws from study treatment for any reason after the first dose of pegloticase in the KXX+MTX Period and prior to Month 6 (for the primary endpoint) or Month 3 (for the secondary endpoint) was considered a non-responder if SUA values were not collected at the planned time points.
Patients were administered oral MTX (15 mg/week) and folate (1 mg/day) 4 weeks prior to the first pegloticase infusion (Day 1) and throughout the pegloticase treatment period. […]

[1] = Day 1 - Pre-Infusion (after MTX Run-in)

CN(Cc1cnc2nc(N)nc(N)c2n1)c1ccc(C(=O)N[C@@H](CCC(=O)O)C(=O)O)cc1 [MTX, methotrexate]
sUA Change from Methotrexate Baseline, Mean (SD) [1]: 0.25 (1.283) mg/dL
sUA Change from Methotrexate Baseline, Median [1]: -0.25 mg/dL
sUA Observed, Median [1]: 9.00 mg/dL
sUA ≤ 6 mg/dL, n (%) [1]: 1 (7.1%) n (%)
sUA Change from Methotrexate Baseline, Mean (SD) (Week -2 (MTX Run-in Period)): 0.54 (0.839) mg/dL
sUA Change from Methotrexate Baseline, Median (Week -2 (MTX Run-in Period)): 0.50 mg/dL
sUA Observed, Median (Week -2 (MTX Run-in Period)): 9.30 mg/dL
sUA ≤ 6 mg/dL, n (%) (Week -2 (MTX Run-in Period)): 1 (7.1%) n (%)

Reference: patent publication US20220323445A1, “REDUCING IMMUNOGENICITY TO PEGLOTICASE” (Horizon Therapeutics Ireland DAC, priority 2020, published 2022)
